# In ChEMBL document CHEMBL4627344, “Synthesis, biological evaluation and virtual screening of some acridone derivatives as potential anticancer agents” (2020):
# Assays:
# Format in all cases: functional
# NCI-H23 = assay: Antiproliferative activity against human NCI-H23 cells assessed as inhibition of cell growth measured after 48 hrs by SRB assay; conditions: NCI-H23, 48 h
# HCT-15 = assay: Antiproliferative activity against human HCT15 cells assessed as inhibition of cell growth measured after 48 hrs by SRB assay; conditions: HCT-15, 48 h
# SR = assay: Antiproliferative activity against human SR cells assessed as inhibition of cell growth at 10 uM measured after 48 hrs by SRB assay relative to control; conditions: read-out: GI
# SNB-19 [1] = assay: Antiproliferative activity against human SNB19 cells assessed as inhibition of cell growth measured after 48 hrs by SRB assay; conditions: SNB-19, 48 h
# U-251 = assay: Antiproliferative activity against human U251 cells assessed as inhibition of cell growth at 10 uM measured after 48 hrs by SRB assay relative to control; conditions: U-251, 48 h, read-out: GI
# SK-MEL-28 = assay: Antiproliferative activity against human SK-MEL-28 cells assessed as inhibition of cell growth measured after 48 hrs by SRB assay; conditions: SK-MEL-28, 48 h
# NCI-H460 = assay: Antiproliferative activity against human NCI-H460 cells assessed as inhibition of cell growth at 10 uM measured after 48 hrs by SRB assay relative to control; conditions: NCI-H460, 48 h, read-out: GI
# OVCAR-8 = assay: Antiproliferative activity against human OVCAR8 cells assessed as inhibition of cell growth measured after 48 hrs by SRB assay; conditions: OVCAR-8, 48 h
# OVCAR-5 = assay: Antiproliferative activity against human OVCAR5 cells assessed as inhibition of cell growth at 10 uM measured after 48 hrs by SRB assay relative to control; conditions: OVCAR-5, 48 h, read-out: GI
# SF-295 = assay: Antiproliferative activity against human SF295 cells assessed as inhibition of cell growth measured after 48 hrs by SRB assay; conditions: SF-295, 48 h
# KM12 = assay: Antiproliferative activity against human KM12 cells assessed as inhibition of cell growth at 10 uM measured after 48 hrs by SRB assay relative to control; conditions: KM12, 48 h, read-out: GI
# NCI-H522 = assay: Antiproliferative activity against human NCI-H522 cells assessed as inhibition of cell growth measured after 48 hrs by SRB assay; conditions: NCI-H522, 48 h
# Hs-578T = assay: Antiproliferative activity against human Hs 578T cells assessed as inhibition of cell growth measured after 48 hrs by SRB assay
# BT-549 = assay: Antiproliferative activity against human BT549 cells assessed as inhibition of cell growth at 10 uM measured after 48 hrs by SRB assay relative to control; conditions: BT-549, 48 h, read-out: GI
# DU-145 [2] = assay: Antiproliferative activity against human DU145 cells assessed as inhibition of cell growth at 10 uM measured after 48 hrs by SRB assay relative to control; conditions: DU-145, 48 h, read-out: GI
# RXF 393 [3] = assay: Antiproliferative activity against human RXF393 cells assessed as inhibition of cell growth at 10 uM measured after 48 hrs by SRB assay relative to control; conditions: RXF 393, 48 h, read-out: GI
# MDA-MB-468 [4] = assay: Antiproliferative activity against human MDA-MB-468 cells assessed as inhibition of cell growth measured after 48 hrs by SRB assay; conditions: MDA-MB-468, 48 h
# DU-145 [5] = assay: Antiproliferative activity against human DU145 cells assessed as inhibition of cell growth measured after 48 hrs by SRB assay; conditions: DU-145, 48 h
# RXF 393 [6] = assay: Antiproliferative activity against human RXF393 cells assessed as inhibition of cell growth measured after 48 hrs by SRB assay; conditions: RXF 393, 48 h
# HCC 2998 = assay: Antiproliferative activity against human HCC2998 cells assessed as inhibition of cell growth at 10 uM measured after 48 hrs by SRB assay relative to control; conditions: HCC 2998, 48 h, read-out: GI
# MCF7 = assay: Antiproliferative activity against human MCF7 cells assessed as inhibition of cell growth measured after 48 hrs by SRB assay; conditions: MCF7, 48 h
# MDA-MB-468 [7] = assay: Antiproliferative activity against human MDA-MB-468 cells assessed as inhibition of cell growth at 10 uM measured after 48 hrs by SRB assay relative to control; conditions: MDA-MB-468, 48 h, read-out: GI
# UO-31 = assay: Antiproliferative activity against human UO31 cells assessed as inhibition of cell growth measured after 48 hrs by SRB assay; conditions: UO-31, 48 h
# NCI-H226 = assay: Antiproliferative activity against human NCI-H226 cells assessed as inhibition of cell growth at 10 uM measured after 48 hrs by SRB assay relative to control; conditions: NCI-H226, 48 h, read-out: GI
# T47D = assay: Antiproliferative activity against human T47D cells assessed as inhibition of cell growth measured after 48 hrs by SRB assay
# SK-MEL-2 = assay: Antiproliferative activity against human SK-MEL-2 cells assessed as inhibition of cell growth measured after 48 hrs by SRB assay; conditions: SK-MEL-2, 48 h
# SK-MEL-5 [8] = assay: Antiproliferative activity against human SK-MEL-5 cells assessed as inhibition of cell growth at 10 uM measured after 48 hrs by SRB assay relative to control; conditions: SK-MEL-5, 48 h, read-out: GI
# NCI/ADR-RES = assay: Antiproliferative activity against human NCI/ADR-RES cells assessed as inhibition of cell growth measured after 48 hrs by SRB assay
# SN12C = assay: Antiproliferative activity against human SN12C cells assessed as inhibition of cell growth measured after 48 hrs by SRB assay
# COLO 205 = assay: Antiproliferative activity against human COLO205 cells assessed as inhibition of cell growth at 10 uM measured after 48 hrs by SRB assay relative to control; conditions: COLO 205, 48 h, read-out: GI
# A498 = assay: Antiproliferative activity against human A498 cells assessed as inhibition of cell growth measured after 48 hrs by SRB assay; conditions: A498, 48 h
# SNB-19 [9] = assay: Antiproliferative activity against human SNB19 cells assessed as inhibition of cell growth at 10 uM measured after 48 hrs by SRB assay relative to control; conditions: SNB-19, 48 h, read-out: GI
# MOLT-4 = assay: Antiproliferative activity against human MOLT4 cells assessed as inhibition of cell growth at 10 uM measured after 48 hrs by SRB assay relative to control; conditions: MOLT-4, 48 h, read-out: GI
# MDA-MB-435 = assay: Antiproliferative activity against human MDA-MB-435 cells assessed as inhibition of cell growth at 10 uM measured after 48 hrs by SRB assay relative to control; conditions: MDA-MB-435, 48 h, read-out: GI
# SK-MEL-5 [10] = assay: Antiproliferative activity against human SK-MEL-5 cells assessed as inhibition of cell growth measured after 48 hrs by SRB assay; conditions: SK-MEL-5, 48 h
smiles,measurement,setting,value
O=C1CC(c2ccccc2)Cc2nc3c(Br)cc(Br)cc3cc21 (stereo not given),GI50,NCI-H23,260 nM
same,GI50,HCT-15,312 nM
same,inhibition of growth at 10 µM,SR,80.5%
same,GI50,SNB-19 [1],406 nM
same,inhibition of growth at 10 µM,U-251,91.4%
same,GI50,SK-MEL-28,478 nM
same,inhibition of growth at 10 µM,NCI-H460,97.7%
same,GI50,OVCAR-8,507 nM
same,inhibition of growth at 10 µM,OVCAR-5,52.9%
same,GI50,SF-295,196 nM
same,inhibition of growth at 10 µM,KM12,98%
same,GI50,NCI-H522,137 nM
same,GI50,Hs-578T,191 nM
same,inhibition of growth at 10 µM,BT-549,94.7%
same,inhibition of growth at 10 µM,DU-145 [2],99%
same,inhibition of growth at 10 µM,RXF 393 [3],70%
same,GI50,MDA-MB-468 [4],1280 nM
same,GI50,DU-145 [5],82.6 nM
same,GI50,RXF 393 [6],91.6 nM
same,inhibition of growth at 10 µM,HCC 2998,93.5%
same,GI50,MCF7,382 nM
same,inhibition of growth at 10 µM,MDA-MB-468 [7],116%
same,GI50,UO-31,79.5 nM
same,inhibition of growth at 10 µM,NCI-H226,85.9%
same,GI50,T47D,851 nM
same,GI50,SK-MEL-2,49.2 nM
same,inhibition of growth at 10 µM,SK-MEL-5 [8],118%
same,GI50,NCI/ADR-RES,236 nM
same,GI50,SN12C,661 nM
same,inhibition of growth at 10 µM,COLO 205,148%
same,GI50,A498,140 nM
same,inhibition of growth at 10 µM,SNB-19 [9],65.2%
same,inhibition of growth at 10 µM,MOLT-4,79.2%
same,inhibition of growth at 10 µM,MDA-MB-435,124%
same,GI50,SK-MEL-5 [10],298 nM
